According to patent publication US5830920A, “Sulfuric acid esters of sugar alcohols” (Hoffmann-La Roche Inc., priority 1995, dated 1998):

What was measured:
factor Xa = factor Xa (Bos taurus, UniProt P00743); test: Inhibition of factor Xa in the chromogenic substrate assay; format: biochemical; conditions: plasma, antithrombin III, substrate S-2222, 37° C., pH 8.4
Experimental: [Worded in the source for another target; used here, by the source, with some conditions changed.] (§1) The blood coagulation-inhibiting activity was determined as follows:
(§2) The buffer solution used consisted of 50 mM Tris buffer, 180 mM NaCl, 7.5 mM EDTA Na2, 1% PEG 6000 and 0.02% Tween 80, pH 8.4. The assay solution consisted of 50 μl of buffer, 30 μl of antithombin III (1 U/ml, Kabi Diagnostica) and 20 μl of plasma which contained various concentrations of test compounds. 30 μl of sample solution and 20 μl of water with 180 μl of thrombin (1 U/ml, thrombin reagent, Roche Basle) were added to the test cuvette in the automatic analyzer.

rat smooth muscle cells = test: Antiproliferative activity in cell cultures (rat smooth muscle cells), relative to heparin; format: cell-based; conditions: 100 μg/ml, 48 h, heparin at same concentration = reference
Experimental: The antiproliferative activity of a substance is expressed as the ri value which is a comparative value to the corresponding activity of heparin and which was determined in cell cultures as follows: rat smooth muscle cells were applied to cell culture plates in a density of 8×10^3 cells/well, medium: DMEM (Dulbecco Modified Eagle Medium) with 10% FCS (fetal calf serum); cultivation at 37° C. and 5% CO2. After 4 hours, the number of adhered cells was determined and the substances to be tested (100 μg/ml, dissolved in H2 O) were added. […] Subsequently,the cells were incubated for 48 h. and thereafter the cell count was determined once more.
The inhibition i of the cell growth, that is, the reduction in the growth rate of the cells in per cent compared to the control, was calculated from these values. [formula] with the growth rate μ being calculated as [formula] in which Z is the number of cells and d is the time in days.
Finally, ri --the relative inhibitory activity--which expresses the activity of a substance (at 100 μg/ml) in comparison to the activity of heparin in the same concentration in the same experiment, was calculated [formula] Blood coagulation inhibition

[1] = system: neointima in rat carotids; test: In vivo assay for antiproliferative activity in damaged rat carotids (neointima after balloonisation); parameters: species or system rat (male Wistar Kyoto); conditions: 0.3 mg/kg/h i.v.
Experimental: In vivo assay for determining the antiproliferative activity of the compounds in accordance with the invention in damaged rat carotids.
The left carotids of male Wistar Kyoto rats (300-400 g) were, after narcosis, damaged with a 2F embolectomy catheter by pulling the catheter in the pumped-up state through the vessel three times. After wound management, the animals were kept in pairs with standard feed and water ad libidum.
The compounds were administered in concentrations of 0.3-1 mg/kg/h i.v. For this purpose, an osmotic minipump was implanted under the dorsal skin of the animals during the narcosis and was connected with the jugular vein. Thus, the compounds could be administered constantly during the entire test period of 14 days.
After 14 days, proliferative tissue (neointima) had formed, the size of which could be determined morphometrically on histological cross-sections.In order to do this, the rats were sacrificed and perfusion-fixed with glutaraldehyde.

thrombin = target: T1, thrombin (Bos taurus, UniProt P00735); test: Inhibition of thrombin in the chromogenic substrate assay; format: biochemical; conditions: plasma, antithrombin III, substrate S-2238, 37° C., pH 8.4
T1 construct: purchased Roche Basle
Experimental: as §1, §2

Chain of factor Xa (P00743 234-492 limits assumed): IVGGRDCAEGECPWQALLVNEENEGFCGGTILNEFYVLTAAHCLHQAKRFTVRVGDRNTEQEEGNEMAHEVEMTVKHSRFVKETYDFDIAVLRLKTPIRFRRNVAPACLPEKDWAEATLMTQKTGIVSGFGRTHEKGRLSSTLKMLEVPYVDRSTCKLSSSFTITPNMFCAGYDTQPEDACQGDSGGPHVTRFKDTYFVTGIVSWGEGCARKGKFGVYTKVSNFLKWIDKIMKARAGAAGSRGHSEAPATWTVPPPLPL
Chain of factor Xa (P00743 41-180 limits assumed): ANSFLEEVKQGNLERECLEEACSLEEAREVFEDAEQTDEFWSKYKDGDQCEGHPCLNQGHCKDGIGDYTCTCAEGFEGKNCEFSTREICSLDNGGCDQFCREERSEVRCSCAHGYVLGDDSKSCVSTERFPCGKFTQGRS

Row | Substance | Anticoagulant Activity IC50 Factor Xa (factor Xa) | Antiproliferative Activity ri (relative inhibitory activity compared to heparin) (rat smooth muscle cells) | effect on neointima compared to concentrated heparin ([1]; 14 days, comparison with heparin) | cross sectional area of the neointima in rat carotids 14 days after balloonisation ([1]; osmotic minipump) | Anticoagulant Activity IC50 Thrombin (thrombin)
1 | 1,6-Bis-O-[4-[2-(2,3,4,5,6-penta-O-sulfo-D-glucit-1-ylcarbamoyl)-ethyl]-phenyl]-2,3,4,5-tetra-O-sulfo-galactitol tetradecasodium salt [Example 6] | > 1000 µg/mL | 0.7 | comparable effect to that of concentrated heparin | significantly reduced (p<0.01, t-test) | > 1000 µg/mL
2 | 1,6-Bis-O-[6-(2,3,4,5,6-penta-O-sulfo-D-glucit-1-ylcarbamoyl)-naphthalen-2- yl]-2,3,4,5-tetra-O-sulfo-galactitol tetradecasodium salt [Example 16] | > 1000 µg/mL | 2.1 | – | – | > 1000 µg/mL
3 | 1,6-bis-O-[3-(2,3,4,5,6-penta-O-sulfo-D-glucit-1-ylcarbamoyl)-naphthalen-2-yl]-2,3,4,5-tetra-O-sulfo-galactitol tetradecasodium salt [Example 14] | > 1000 µg/mL | 1.5 | – | – | > 1000 µg/mL
4 | 1,6-bis-O-[3-(2,3,4,5-tetra-O-sulfo-D-arabinit-1-yloxy)-naphthalen-2-yl]-2,3,4,5-tetra-O-sulfo-galactitol dodecasodium salt [Example 40] | > 1000 µg/mL | 1.4 | – | – | > 1000 µg/mL
5 | 1,6-bis-O-[3-[benzyl 2,6-didesoxy-6-(2,3,4,5,6-penta-O-sulfo-D-gluconoylamino)-3,4-di-O-sulfo-a-D-glucopyranosid-2-ylcarbamoyl]-naphthalen-1-yl]-2,3,4,5-tetra-O-sulfo-galactitol octadecasodium salt [Example 56] | > 1000 µg/mL | 1.7 | – | – | > 1000 µg/mL
6 | 1,6-bis-O-[3-biphenyl-4-ylmethoxy-5-(2,3,4,5,6-penta-O-sulfo-D-glucit-1-ylcarbamoyl)-phenyl]-2,3,4,5-tetra-O-sulfo-galactitol tetradecasodium salt [Example 17] | > 1000 µg/mL | 1.5 | – | – | > 1000 µg/mL
7 | 1,6-bis-O-[4-[2-[4-(2,3,4,5,6-penta-O-sulfo-D-glucit-1-ylcarbamoyl)-phenyl]-ethyl]-phenyl]-2,3,4,5-tetra-O-sulfo-galactitol tetradecasodium salt [Example 11] | > 1000 µg/mL | 2.2 | – | – | > 1000 µg/mL
8 | 1,6-bis-O-[4-[2-[benzyl-2,6-didesoxy-6-(2,3,4,5,6-penta-O-sulfo-D-gluconoylamino)-3,4-di-O-sulfo-a-D-glucopyranosid-2-ylcarbamoyl]-ethyl]-phenyl]-2,3,4,5-tetra-O-sulfo-galactitol octadecasodium salt [Example 58] | > 1000 µg/mL | 1.8 | – | – | > 1000 µg/mL
9 | 1,6-bis-O-[4-[4-O-[4-[(E)-2-(2,3,4,5,6-penta-O-sulfo-D-glucit-1-ylcarbamoyl)-vinyl]-phenyl]-2,3-di-O-sulfo-D-threit-1-yloxy]-phenyl]-2,3,4,5-tetra-O- sulfo-galactitol octadecasodium salt [Example 48] | > 1000 µg/mL | 2.7 | – | – | > 1000 µg/mL
10 | 1,6-bis-O-[4-[4-O-[4-[(E)-2-[methyl-(2,3,4,5,6-penta-O-sulfo-D-glucit-1-yl)-carbamoyl]-vinyl]-phenyl]-2,3-di-O-sulfo-D-threit-1-yloxy]-phenyl]-2,3,4,5-tetra-O-sulfo-galactitol octadecasodium salt [Example 52] | > 1000 µg/mL | 0.8 | – | – | > 1000 µg/mL
11 | 1,6-bis-O-[4-[(E)-2-[benzyl 2,6-didesoxy-2-[4-(2,3,4,5,6-penta-O-sulfo-D-glucit-1-ylamino)-3-nitro-benzoyl-amino]-3,4-di-O-sulfo-a-D-glucopyranosid-6-ylcarbamoyl]-vinyl]-phenyl]-2,3,4,5-tetra-O-sulfo-galactitol octadecasodium salt [Example 61] | > 1000 µg/mL | 2.4 | – | – | > 1000 µg/mL
12 | 1,6-bis-O-[6-[(S)-2,3-bis-sulfooxy-propoxy]-3-(2,3,4,5,6-penta-O-sulfo-D-glucit 1-ylcarbamoyl)-naphthalen-2-yl]-2,3,4,5-tetra-O-sulfo-galactitol octadecasodium salt [Example 22] | > 1000 µg/mL | 2.1 | – | – | > 1000 µg/mL
13 | 1,6-bis-O-[6-[benzyl 2,6-didesoxy-2-[3-nitro-4-(2,3,4,5,6-penta-O-sulfo-D-glucit-1-ylamino)-benzoylamino]-3,4-di-O-sulfo-a-D-glucopyranosid-6-ylcarbamoyl]-naphthalen-2-yl]-2,3,4,5-tetra-O-sulfo-galactitol octadecasodium salt [Example 59] | > 1000 µg/mL | 1.8 | – | – | > 1000 µg/mL
14 | 1,6-didesoxy-2,3,4,5-tetra-O-sulfo-1,6-bis-[3-(2,3,4,5-tetra-O-sulfo-D-arabinit-1-yloxy)-naphthalen-2-ylcarbonylamino]-galactitol dodecasodium salt [Example 45] | > 1000 µg/mL | 1.4 | – | – | > 1000 µg/mL
15 | 2,3,4,5-tetra-O-sulfo-1,6-bis-O-[4-[4-(2,3,4,5-tetra-O-sulfo-D-arabinit-1- yloxy)-benzyl]-phenyl]-D-mannitol dodecasodium salt [Example 43] | > 1000 µg/mL | 1.3 | – | – | > 1000 µg/mL
16 | Heparin [reference compound] | 2.7 µg/mL | 1.0 | – | – | 1.9 µg/mL
